Laboratory results from publication PMC8619593 (Pharmaceuticals, 2021).
In brackets after ≈: the same amount, converted by molar mass. Several values for one entry are separate records, joined by “and”; a condition that tells them apart may be missing. Identical values can stand only once. Entries after “also recorded” stand apart in the source; their conditions may differ. Like-named read-outs stand apart in the source and are kept apart here.

Legend:
3CLPro = 3CLPro (Severe acute respiratory syndrome coronavirus 2, UniProt P0DTD1); assay: 3CLPro FRET-based inhibition assay; format: biochemical, SARS-CoV-2; details: for IC50: FRET, 600 nM 3CLPro, 250 nM substrate; for inhibition at 100 µM: read-out: 3CLPro inhibition
SARS-CoV-2 [1] = assay: Viral RNA reduction assay (ddPCR) in Vero E6 cells, MOI 0.01; details: for SARS-CoV-2 RNA Reduction, activity at 50 µM: MOI 0.01, tested at 50 µM; for EC50: read-out: SARS-CoV-2 RNA Reduction EC50; for Therapeutic Index CC50/EC50: calculated from RNA reduction EC50 values
Vero E6 cells = details: dilutions from 100 µM
[2] = target: T1, Human recombinant cathepsin B (exopeptidase activity) (Homo sapiens, UniProt P07858); assay: Cathepsin B exopeptidase inhibition assay; format: biochemical
T1 construct: The Preparation of Catalytically Active Human Cathepsin B from Its Precursor Expressed in Escherichia coli; made in house; host or cells: Escherichia coli

[3] = system: Staphylococcus aureus MRSA ATCC 33591; assay: Broth microdilution MIC
[4] = system: Enterococcus faecalis ATCC 29212; assay: Broth microdilution MIC; details: ATCC29212, 24 h
[5] = set-up: method as in PMID 32625627; details: cited from earlier work
[6] = system: Staphylococcus aureus MSSA ATCC 29213; assay: Broth microdilution MIC
[7] = system: Enterococcus faecalis ATCC 51299 VanB; assay: Broth microdilution MIC
in vitro = details: African green monkey
[8] = system: Enterococcus faecalis 15376 VanA; assay: Broth microdilution MIC; details: 24 h
[9] = target: Human recombinant cathepsin L (Homo sapiens, UniProt P07711); assay: Cathepsin L inhibition assay; format: biochemical
Human recombinant cathepsin L, sequence (P07711 114-333): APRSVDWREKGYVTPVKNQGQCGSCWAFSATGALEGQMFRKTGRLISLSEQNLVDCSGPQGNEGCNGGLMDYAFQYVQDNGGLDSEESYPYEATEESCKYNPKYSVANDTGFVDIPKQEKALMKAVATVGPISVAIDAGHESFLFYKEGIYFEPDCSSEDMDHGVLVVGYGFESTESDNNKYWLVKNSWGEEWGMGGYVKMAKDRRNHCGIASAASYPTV

[10] = system: Staphylococcus epidermidis ATCC 35984 biofilm; assay: Broth microdilution MIC
[11] = system: Bacillus subtilis ATCC 6633; assay: Broth microdilution MIC; details: ATCC6633, 24 h
SARS-CoV-2 [12] = assay: microbe, parasite or virus in culture; format: cell-based; details: Vero E6 cells, read-out: SARS-CoV-2 IFA, EC50
[13] = system: Staphylococcus epidermidis mecA; assay: Broth microdilution MIC; details: 24 h
SARS-CoV-2 [14] = assay: microbe, parasite or virus in culture; format: cell-based; details: Vero E6 cells, MOI 0.04, three days, XTT, read-out: SARS-CoV-2 CPE, EC50
SARS-CoV-2 [15] = system: SARS-CoV-2
SARS-CoV-1 = details: read-out: IC50 for blocking SARS-CoV-1 entry; cited from earlier work
SARS-CoV-2 [16] = details: read-out: IC50 for blocking SARS-CoV-2 entry; cited from earlier work
[17] = Enterococcus faecalis, ATCC51299, 24 h
[18] = Severe acute respiratory syndrome coronavirus 2, Vero C1008, 48 h
[19] = Enterococcus faecalis, 15376VANA
[20] = pH 5.5, substrate Z-Phe-Arg-AMC; read-out: Cathepsin L IC50
[21] = Staphylococcus epidermidis, ATCC35984, 24 h
[22] = Severe acute respiratory syndrome coronavirus 2, Vero C1008, 72 h
[23] = read-out: Exopeptidase Cathepsin B IC50; pH 5.0, substrate Abz-Gly-Ile-Val-Arg-Ala-Lys(Dnp)-OH
[24] = read-out: Cathepsin L IC50; pH 5.5, substrate Z-Phe-Arg-AMC

CC(/C=C/C=C(C)/C=C/C(=O)O)=C\C=C\C=C(C)\C=C\C=C(C)\C=C\C(=O)O (stereo in doubt) [Compound 1d, norbixin]
IC50 (3CLPro): 36.1 ± 11.7 µM
SARS-CoV-2 RNA Reduction, activity at 50 µM (SARS-CoV-2 [1]; Vero E6 cells): completely inactive
SARS-CoV-2 RNA Reduction, activity at 50 µM (SARS-CoV-2 [1]; Vero E6 cells, listed as 1d (norbixin)): not active at 50 µM
CC50 (Vero E6 cells): > 100 µM

COC(=O)/C=C/C(C)=C\C=C\C(C)=C\C=C\C=C(C)\C=C\C=C(C)\C=C\C(=O)O [Compound 1a, Bixin, reference compound]
IC50 ([2]; pH 5.0, substrate Abz-Gly-Ile-Val-Arg-Ala-Lys(Dnp)-OH; read-out: Exopeptidase Cathepsin B IC50): 14.6 ± 1.71 µM
MIC ([3]; Staphylococcus aureus, 24 h): 512 µg/mL (≈ 1300 µM)
MIC [4]: 512 µg/mL (≈ 1300 µM)
acceptable daily intake [5]: 6 mg/kg body weight
MIC ([6]; Staphylococcus aureus, 24 h): 512 µg/mL (≈ 1300 µM)
MIC [7, 17]: 512 µg/mL (≈ 1300 µM)
inhibition at 100 µM (3CLPro): 56%
EC50 (SARS-CoV-2 [1]; [18]): 5.9 ± 1.7 µM
Therapeutic Index CC50/EC50 (SARS-CoV-2 [1]): >17
CC50 (in vitro): > 100 µM
MIC [8, 19]: 512 µg/mL (≈ 1300 µM)
IC50 [9, 20]: 41.9 ± 1.12 µM
MIC [10, 21]: 512 µg/mL (≈ 1300 µM)
MIC [11]: 512 µg/mL (≈ 1300 µM)
EC50 (SARS-CoV-2 [12]; Severe acute respiratory syndrome coronavirus 2, Vero C1008, 72 h, MOI 0.04, three days, dilutions from 100 µM): 28 ± 8.8 µM
MIC ([13]; Staphylococcus epidermidis): 512 µg/mL (≈ 1300 µM)
EC50 (SARS-CoV-2 [14]; [22]): 14 ± 3.5 µM

COC(=O)/C(C)=C/C=C/C(C)=C/C=C/C=C(C)/C=C/C=C(\C)C(=O)O [Compound 1b, crocetin monomethyl ester]
inhibition at 100 µM (3CLPro): 24%
SARS-CoV-2 RNA Reduction, activity at 50 µM (SARS-CoV-2 [1]; Vero E6 cells): did not show antiviral activity; also recorded: not active at 50 µM
melting point: 204 to 205 °C

CC1=C(/C=C/C(C)=C/C=C/C(C)=C/C=C/C=C(C)/C=C/C=C(\C)C(=O)O)C(C)(C)CCC1 [Compound 1c, β-apo-8′-carotenoic acid]
IC50 ([2]; read-out: Exopeptidase Cathepsin B IC50): 21.3 ± 1.2 µM
IC50 (3CLPro): 73 ± 7.1 µM
EC50 (SARS-CoV-2 [1]; [18]): 15 ± 2 µM
Therapeutic Index CC50/EC50 (SARS-CoV-2 [1]): >6.7
CC50 at 3 days (in vitro): > 100 µM
IC50 [9, 20]: 76 ± 1.74 µM
EC50 (SARS-CoV-2 [12]; Severe acute respiratory syndrome coronavirus 2, Vero C1008, MOI 0.04, * measurement from 50 µM): 31 ± 7.9 µM
melting point: 194 to 195 °C
EC50 (SARS-CoV-2 [14]; [22]): 14 ± 2.2 µM

CC(=O)N[C@H]1[C@H](O[C@@H]2c3ccc(c(Cl)c3)Oc3cc4cc(c3O)Oc3ccc(cc3Cl)C[C@H]3NC(=O)[C@H](N)c5ccc(O)c(c5)Oc5cc(O)cc(c5)[C@H](NC3=O)C(=O)N[C@H]4C(=O)N[C@H]3C(=O)N[C@@H]2C(=O)N[C@H](C(=O)O)c2cc(O)cc(O)c2-c2cc3ccc2O)O[C@H](CO)[C@@H](O)[C@@H]1O [Compound 2, Teicoplanin pseudoaglycone]
inhibition at 50 µM ([2]; read-out: Exopeptidase Cathepsin B relative inhibition): 7.8%
inhibition at 200 µM (3CLPro; at 200 μM): 34%
inhibition at 50 µM ([9]; read-out: Cathepsin L relative inhibition): 0.04%

COC(=O)/C=C/C(C)=C\C=C\C(C)=C\C=C\C=C(C)\C=C\C=C(C)\C=C\C(=O)N[C@H]1C(=O)N[C@@H]2Cc3ccc(c(Cl)c3)Oc3cc4cc(c3O)Oc3ccc(cc3Cl)[C@@H](O[C@@H]3O[C@H](CO)[C@@H](O)[C@H](O)[C@H]3NC(C)=O)[C@@H]3NC(=O)[C@H](NC(=O)[C@@H]4NC(=O)[C@@H](NC2=O)c2cc(O)cc(c2)Oc2cc1ccc2O)c1ccc(O)c(c1)-c1c(O)cc(O)cc1[C@@H](C(=O)O)NC3=O [Compound 5a]
IC50 [2, 23]: 47.9 ± 1.07 µM
MIC ([3]; Staphylococcus aureus, 24 h): 0.5 µg/mL (≈ 0.281 µM)
MIC [4]: 16 µg/mL (≈ 9 µM)
MIC ([6]; Staphylococcus aureus, 24 h): 16 µg/mL (≈ 9 µM)
MIC [7, 17]: 16 µg/mL (≈ 9 µM)
IC50 (3CLPro): 13.9 ± 1.73 µM
Therapeutic Index CC50/EC50 (SARS-CoV-2 [15]): >17
CC50 (Vero E6 cells): > 100 µM
MIC [8, 19]: 16 µg/mL (≈ 9 µM)
IC50 [9, 24]: 42.4 ± 1.86 µM
MIC [10, 21]: 0.5 µg/mL (≈ 0.281 µM)
MIC [11]: 32 µg/mL (≈ 18 µM)
MIC ([13]; Staphylococcus epidermidis): 16 µg/mL (≈ 9 µM)

COC(=O)/C(C)=C/C=C/C(C)=C/C=C/C=C(C)/C=C/C=C(\C)C(=O)N[C@H]1C(=O)N[C@@H]2Cc3ccc(c(Cl)c3)Oc3cc4cc(c3O)Oc3ccc(cc3Cl)[C@@H](O[C@@H]3O[C@H](CO)[C@@H](O)[C@H](O)[C@H]3NC(C)=O)[C@@H]3NC(=O)[C@H](NC(=O)[C@@H]4NC(=O)[C@@H](NC2=O)c2cc(O)cc(c2)Oc2cc1ccc2O)c1ccc(O)c(c1)-c1c(O)cc(O)cc1[C@@H](C(=O)O)NC3=O [Compound 5b]
IC50 [2, 23]: 99.5 ± 1.16 µM
MIC ([3]; Staphylococcus aureus, 24 h): 2 µg/mL (≈ 1.16 µM)
MIC [4]: 4 µg/mL (≈ 2.32 µM)
MIC ([6]; Staphylococcus aureus, 24 h): 8 µg/mL (≈ 4.63 µM)
MIC [7, 17]: 8 µg/mL (≈ 4.63 µM)
Therapeutic Index CC50/EC50 (SARS-CoV-2 [15]): >19.2
CC50 (Vero E6 cells): > 100 µM
MIC [8, 19]: 8 µg/mL (≈ 4.63 µM)
IC50 [9, 24]: 103 ± 1.12 µM
MIC [10, 21]: 0.5 µg/mL (≈ 0.29 µM)
MIC [11]: 16 µg/mL (≈ 9.27 µM)
MIC ([13]; Staphylococcus epidermidis): 2 µg/mL (≈ 1.16 µM)

CC(=O)NC1C(OC2c3ccc(c(Cl)c3)Oc3cc4cc(c3O)Oc3ccc(cc3Cl)CC3NC(=O)C(NC(=O)C(C)=CC=CC(C)=CC=CC=C(C)C=CC=C(C)C=CC5=C(C)CCCC5(C)C)c5ccc(O)c(c5)Oc5cc(O)cc(c5)C(NC3=O)C(=O)NC4C(=O)NC3C(=O)NC2C(=O)NC(C(=O)O)c2cc(O)cc(O)c2-c2cc3ccc2O)OC(CO)C(O)C1O (stereo not shown) [Compound 5c]
IC50 [2, 23]: 56.5 ± 1.06 µM
MIC ([3]; Staphylococcus aureus, 24 h): 1 µg/mL (≈ 0.55 µM)
MIC [4]: 4 µg/mL (≈ 2.2 µM)
MIC ([6]; Staphylococcus aureus, 24 h): 8 µg/mL (≈ 4.4 µM)
MIC [7, 17]: 8 µg/mL (≈ 4.4 µM)
IC50 (3CLPro): 34.5 ± 12.5 µM
Therapeutic Index CC50/EC50 (SARS-CoV-2 [15]): >22.7
CC50 (Vero E6 cells): > 100 µM
MIC [8, 19]: 8 µg/mL (≈ 4.4 µM)
IC50 [9, 24]: 47.1 ± 1.05 µM
MIC [10, 21]: 0.5 µg/mL (≈ 0.275 µM)
MIC [11]: 16 µg/mL (≈ 8.81 µM)
MIC ([13]; Staphylococcus epidermidis): 0.5 µg/mL (≈ 0.275 µM)

COC(=O)/C=C/C(C)=C\C=C\C(C)=C\C=C\C=C(C)\C=C\C=C(C)\C=C\C(=O)N[C@H]1C(=O)N[C@H]2C(=O)N[C@H](C(=O)N[C@H]3C(=O)N[C@H]4C(=O)N[C@H](C(=O)N[C@H](C(=O)OC)c5cc(O)cc(O)c5-c5cc4ccc5O)[C@H](O)c4ccc(cc4)Oc4cc3cc(c4O)Oc3ccc(cc3)[C@H]2O)c2cc(O)c(C)c(c2)Oc2cc1ccc2O [Compound 7]
MIC ([3]; Staphylococcus aureus, 24 h): 64 µg/mL (≈ 41.3 µM)
MIC [4]: 32 µg/mL (≈ 20.6 µM)
MIC ([6]; Staphylococcus aureus, 24 h): 64 µg/mL (≈ 41.3 µM)
MIC [7, 17]: 64 µg/mL (≈ 41.3 µM)
MIC [8, 19]: 256 µg/mL (≈ 165 µM)
MIC [10, 21]: 64 µg/mL (≈ 41.3 µM)
MIC [11]: 32 µg/mL (≈ 20.6 µM)
MIC ([13]; Staphylococcus epidermidis): 64 µg/mL (≈ 41.3 µM)

teicoplanin [Compound 3, reference compound]
Exopeptidase Cathepsin B relative inhibition ([2]; at 50 μM): 0.45% at 50 μM
MIC ([3]; Staphylococcus aureus MRSA ATCC 33591, 24 h): 0.5 µg/mL
MIC [4]: 2 µg/mL
MIC ([6]; Staphylococcus aureus MSSA ATCC 29213, 24 h): 0.5 µg/mL
MIC ([7]; Enterococcus faecalis ATCC 51299 VanB, 24 h): 4 µg/mL
3CLPro inhibition (3CLPro; at 200 μM): 13% at 200 μM
EC50 (SARS-CoV-2 [1]; Vero E6 cells, MOI 0.01, 48 h, ddPCR of supernatant): 5.6 ± 1.3 µM
CC50 (Vero E6 cells): > 100 µM
MIC ([8]; Enterococcus faecalis 15376 VanA): 256 µg/mL
Cathepsin L relative inhibition ([9]; at 50 μM): 5.07% at 50 μM
Cathepsin L relative inhibition ([9]; at 50 μM; listed as teicoplanin): 5%
IC50 (SARS-CoV-1): 3.76 µM
IC50 (SARS-CoV-2 [16]): 1.66 µM
MIC ([10]; Staphylococcus epidermidis ATCC 35984 biofilm, 24 h): 2 µg/mL
MIC [11]: 0.5 µg/mL
EC50 (SARS-CoV-2 [12]; MOI 0.04, three days, dilutions from 100 µM): 18 ± 5.4 µM
MIC ([13]; Staphylococcus epidermidis mecA): 16 µg/mL
EC50 (SARS-CoV-2 [14]): 15.7 µM and 16 µM
